The supplement of paper PMC10627819

Tests used:
S. aureus DSM 20231 [1] = experiment: Bliss interaction score (quartile over a dose matrix) (fitness difference); higher = more antagonism (negative = synergy)
Method in brief: (§1)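 Combination data were used to infer fitness under each single drug. Fitness is the OD595 at entry into stationary phase divided by the robust mean of the plate's no-drug wells, with a cap of 1. The Bliss score is the observed minus the expected product fitness, summarised by quartiles over technical, biological and donor/recipient replicates.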

B. subtilis 168 = experiment: as above
Method in brief: as §1

S. pneumoniae D39V [2] = experiment: as above
Method in brief: as §1

S. aureus Newman [3] = experiment: as above
Method in brief: as §1

S. aureus DSM 20231 [4] = experiment: fitness (endpoint OD595 vs no drug) (fraction); higher = more growth
Method in brief: (§2)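 Each well of a 384-well plate received 30 µl of culture at OD595 0.01, or 55 µl for S. pneumoniae. TSB, LB Lennox or CY served as media at 37 °C. OD595 was taken every 30 min for 14 h and corrected by subtracting the first reading. Fitness is the optical density at stationary-phase entry divided by the robust mean of no-drug controls, capped at 1.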

S. aureus Newman [5] = experiment: as above
Method in brief: as §2

S. pneumoniae D39V [6] = experiment: as above
Method in brief: as §2
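For Bliss interaction score (quartile over a dose matrix) in this document: first quartile when negative (synergy) and third quartile when positive (antagonism).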

COc1ccc(C[C@H](N)C(=O)N[C@H]2[C@@H](O)[C@H](n3cnc4c(N(C)C)ncnc43)O[C@@H]2CO)cc1 [Puromycin] + CCCCCCCCCC(=O)N[C@@H]1[C@H]([C@@H]([C@H](O[C@H]1OC2=C3C=C4C=C2OC5=C(C=C(C=C5)[C@H]([C@H]6C(=O)N[C@@H](C7=C(C(=CC(=C7)O)OC8[C@H]([C@H]([C@@H]([C@H](O8)CO)O)O)O)C9=C(C=CC(=C9)[C@H](C(=O)N6)NC(=O)[C@@H]4NC(=O)[C@@H]1C2=CC(=CC(=C2)OC2=C(C=CC(=C2)[C@H](C(=O)N[C@H](CC2=CC(=C(O3)C=C2)Cl)C(=O)N1)N)O)O)O)C(=O)O)O[C@H]1[C@@H]([C@H]([C@@H]([C@H](O1)CO)O)O)NC(=O)C)Cl)CO)O)O [Teicoplanin]
main component drawn
Settings	Bliss interaction score
B. subtilis 168	0.0835
S. aureus DSM 20231 [1]	-0.0344
S. aureus Newman [3]	0.0617
S. pneumoniae D39V [2]	0.083

fitness, main component drawn
Settings	first compound 0.39 µg/mL	first compound 0.78 µg/mL	first compound 1.56 µg/mL
S. aureus DSM 20231 [4], partner 0.1562 µg/mL	0.895	0.997	0.982
S. aureus DSM 20231 [4], partner 0.3125 µg/mL	≥ 1	≥ 1	1
S. aureus DSM 20231 [4], partner 0.625 µg/mL	≥ 1	≥ 1	≥ 1
S. aureus Newman [5], partner 0.1562 µg/mL	≥ 1	≥ 1	≥ 1
S. aureus Newman [5], partner 0.3125 µg/mL	≥ 1	≥ 1	≥ 1
S. aureus Newman [5], partner 0.625 µg/mL	≥ 1	0.888	0.906

fitness, one replicate, main component drawn
Settings	partner 0.1562 µg/mL	partner 0.3125 µg/mL	partner 0.62 µg/mL	partner 0.625 µg/mL	partner 1.24 µg/mL	partner 2.48 µg/mL
S. aureus DSM 20231 [4], first compound 3.12 µg/mL	0.94	≥ 1	–	≥ 1	–	–
S. aureus DSM 20231 [4], first compound 6.24 µg/mL	0.664	0.579	–	0.504	–	–
S. aureus Newman [5], first compound 0.39 µg/mL	–	–	0.761	–	0.754	0.457
S. aureus Newman [5], first compound 0.78 µg/mL	–	–	0.815	–	0.755	0.454
S. aureus Newman [5], first compound 1.56 µg/mL	–	–	0.79	–	0.76	0.403

CO/N=C(\C(=O)N[C@@H]1C(=O)N2C(C(=O)O)=C(COC(C)=O)CS[C@H]12)c1csc(N)n1 [Cefotaxime] + CN[C@H](CC(C)C)C(=O)N[C@H]1C(=O)N[C@@H](CC(N)=O)C(=O)N[C@H]2C(=O)N[C@H]3C(=O)N[C@H](C(=O)N[C@H](C(=O)O)c4cc(O)cc(O)c4-c4cc3ccc4O)[C@H](O)c3ccc(c(Cl)c3)Oc3cc2cc(c3O[C@@H]2O[C@H](CO)[C@@H](O)[C@H](O)[C@H]2O[C@H]2C[C@](C)(N)[C@H](O)[C@H](C)O2)Oc2ccc(cc2Cl)[C@H]1O [Vancomycin]
Settings	Bliss interaction score
B. subtilis 168	-0.0945
S. aureus DSM 20231 [1]	-0.0428
S. aureus Newman [3]	-0.0425
S. pneumoniae D39V [2]	-0.084

Settings	fitness
S. aureus DSM 20231 [4], first compound 0.039 µg/mL, partner 0.1875 µg/mL	0.791
S. aureus DSM 20231 [4], first compound 0.039 µg/mL, partner 0.375 µg/mL	0.78
S. aureus DSM 20231 [4], first compound 0.039 µg/mL, partner 0.75 µg/mL	0.805
S. aureus DSM 20231 [4], first compound 0.078 µg/mL, partner 0.1875 µg/mL	0.715
S. aureus DSM 20231 [4], first compound 0.078 µg/mL, partner 0.375 µg/mL	0.795
S. aureus DSM 20231 [4], first compound 0.078 µg/mL, partner 0.75 µg/mL	0.752
S. aureus DSM 20231 [4], first compound 0.156 µg/mL, partner 0.1875 µg/mL	0.629
S. aureus DSM 20231 [4], first compound 0.156 µg/mL, partner 0.375 µg/mL	0.698
S. aureus DSM 20231 [4], first compound 0.156 µg/mL, partner 0.75 µg/mL	0.772
S. aureus DSM 20231 [4], first compound 0.312 µg/mL, partner 0.1875 µg/mL	0.641
S. aureus DSM 20231 [4], first compound 0.312 µg/mL, partner 0.375 µg/mL	0.733
S. aureus DSM 20231 [4], first compound 0.312 µg/mL, partner 0.75 µg/mL	0.82
S. aureus Newman [5], first compound 0.078 µg/mL, partner 0.1875 µg/mL	0.723
S. aureus Newman [5], first compound 0.078 µg/mL, partner 0.375 µg/mL	0.758
S. aureus Newman [5], first compound 0.078 µg/mL, partner 0.75 µg/mL	0.761
S. aureus Newman [5], first compound 0.156 µg/mL, partner 0.1875 µg/mL	0.62
S. aureus Newman [5], first compound 0.156 µg/mL, partner 0.375 µg/mL	0.648
S. aureus Newman [5], first compound 0.156 µg/mL, partner 0.75 µg/mL	0.614
S. aureus Newman [5], first compound 0.625 µg/mL, partner 0.1875 µg/mL	0.0427
S. aureus Newman [5], first compound 0.625 µg/mL, partner 0.375 µg/mL	0.0413
S. aureus Newman [5], first compound 0.625 µg/mL, partner 0.75 µg/mL	0.0855
S. aureus Newman [5], first compound 1.25 µg/mL, partner 0.1875 µg/mL	0.0418
S. aureus Newman [5], first compound 1.25 µg/mL, partner 0.375 µg/mL	0.0511
S. aureus Newman [5], first compound 1.25 µg/mL, partner 0.75 µg/mL	0.0481
S. aureus Newman [5], first compound 2.5 µg/mL, partner 0.1875 µg/mL	0.036
S. aureus Newman [5], first compound 2.5 µg/mL, partner 0.375 µg/mL	0.0526
S. aureus Newman [5], first compound 2.5 µg/mL, partner 0.75 µg/mL	0.0388
S. pneumoniae D39V [6], first compound 0.0018 µg/mL, partner 0.03125 µg/mL	≥ 1
S. pneumoniae D39V [6], first compound 0.0018 µg/mL, partner 0.0625 µg/mL	0.892
S. pneumoniae D39V [6], first compound 0.0018 µg/mL, partner 0.125 µg/mL	0.907
S. pneumoniae D39V [6], first compound 0.0018 µg/mL, partner 0.25 µg/mL	0.909
S. pneumoniae D39V [6], first compound 0.0018 µg/mL, partner 0.5 µg/mL	0.0621
S. pneumoniae D39V [6], first compound 0.0035 µg/mL, partner 0.03125 µg/mL	0.94
S. pneumoniae D39V [6], first compound 0.0035 µg/mL, partner 0.0625 µg/mL	0.803
S. pneumoniae D39V [6], first compound 0.0035 µg/mL, partner 0.25 µg/mL	0.793
S. pneumoniae D39V [6], first compound 0.0035 µg/mL, partner 0.5 µg/mL	0.047
S. pneumoniae D39V [6], first compound 0.007 µg/mL, partner 0.25 µg/mL	0.257
S. pneumoniae D39V [6], first compound 0.007 µg/mL, partner 0.5 µg/mL	0.0521

fitness, S. aureus Newman [5], one replicate
Settings	partner 0.1875 µg/mL	partner 0.375 µg/mL	partner 0.75 µg/mL
first compound 0.039 µg/mL	0.732	0.867	0.784
first compound 0.312 µg/mL	0.34	0.353	0.395

COc1ccc(C[C@H](N)C(=O)N[C@H]2[C@@H](O)[C@H](n3cnc4c(N(C)C)ncnc43)O[C@@H]2CO)cc1 [Puromycin] + CN[C@H](CC(C)C)C(=O)N[C@H]1C(=O)N[C@@H](CC(N)=O)C(=O)N[C@H]2C(=O)N[C@H]3C(=O)N[C@H](C(=O)N[C@H](C(=O)O)c4cc(O)cc(O)c4-c4cc3ccc4O)[C@H](O)c3ccc(c(Cl)c3)Oc3cc2cc(c3O[C@@H]2O[C@H](CO)[C@@H](O)[C@H](O)[C@H]2O[C@H]2C[C@](C)(N)[C@H](O)[C@H](C)O2)Oc2ccc(cc2Cl)[C@H]1O [Vancomycin]
Settings	Bliss interaction score
B. subtilis 168	-0.0411
S. aureus DSM 20231 [1]	0.0659
S. aureus Newman [3]	0.0575
S. pneumoniae D39V [2]	-0.0711

fitness
Settings	S. aureus DSM 20231 [4]	S. aureus Newman [5]	S. pneumoniae D39V [6]
first compound 0.39 µg/mL, partner 0.1875 µg/mL	≥ 1	≥ 1	–
first compound 0.39 µg/mL, partner 0.375 µg/mL	0.986	0.996	–
first compound 0.39 µg/mL, partner 0.75 µg/mL	≥ 1	≥ 1	–
first compound 0.78 µg/mL, partner 0.1875 µg/mL	≥ 1	≥ 1	–
first compound 0.78 µg/mL, partner 0.375 µg/mL	≥ 1	0.994	–
first compound 0.78 µg/mL, partner 0.75 µg/mL	≥ 1	0.979	–
first compound 1 µg/mL, partner 0.03125 µg/mL	–	–	0.999
first compound 1 µg/mL, partner 0.0625 µg/mL	–	–	0.989
first compound 1 µg/mL, partner 0.125 µg/mL	–	–	0.8
first compound 1.56 µg/mL, partner 0.1875 µg/mL	≥ 1	≥ 1	–
first compound 1.56 µg/mL, partner 0.375 µg/mL	≥ 1	0.978	–
first compound 1.56 µg/mL, partner 0.75 µg/mL	≥ 1	0.999	–
first compound 2 µg/mL, partner 0.03125 µg/mL	–	–	0.985
first compound 2 µg/mL, partner 0.0625 µg/mL	–	–	0.969
first compound 2 µg/mL, partner 0.125 µg/mL	–	–	0.849
first compound 4 µg/mL, partner 0.03125 µg/mL	–	–	0.808
first compound 4 µg/mL, partner 0.0625 µg/mL	–	–	0.822

one replicate
Settings	fitness
S. aureus DSM 20231 [4], first compound 3.12 µg/mL, partner 0.1875 µg/mL	≥ 1
S. aureus DSM 20231 [4], first compound 3.12 µg/mL, partner 0.375 µg/mL	0.915
S. aureus DSM 20231 [4], first compound 3.12 µg/mL, partner 0.75 µg/mL	0.922
S. aureus DSM 20231 [4], first compound 6.24 µg/mL, partner 0.1875 µg/mL	0.642
S. aureus DSM 20231 [4], first compound 6.24 µg/mL, partner 0.375 µg/mL	0.737
S. aureus DSM 20231 [4], first compound 6.24 µg/mL, partner 0.75 µg/mL	0.716
S. pneumoniae D39V [6], first compound 1 µg/mL, partner 0.25 µg/mL	0.088
S. pneumoniae D39V [6], first compound 1 µg/mL, partner 0.5 µg/mL	0.0805
S. pneumoniae D39V [6], first compound 2 µg/mL, partner 0.25 µg/mL	0.223
S. pneumoniae D39V [6], first compound 2 µg/mL, partner 0.5 µg/mL	0.125
S. pneumoniae D39V [6], first compound 4 µg/mL, partner 0.25 µg/mL	0.141
S. pneumoniae D39V [6], first compound 4 µg/mL, partner 0.5 µg/mL	0.121
